Reference: BigSolDB 2.1

SMILES: Cn1cnc([N+](=O)[O-])c1Cl
- solubility (mole fraction) (in 1,4-dioxane, 283.15 K): 0.00714
- solubility (mole fraction) (in 1,4-dioxane, 285.65 K): 0.00797
- solubility (mole fraction) (in 1,4-dioxane, 288.15 K): 0.00882
- solubility (mole fraction) (in 1,4-dioxane, 290.65 K): 0.00986
- solubility (mole fraction) (in 1,4-dioxane, 293.15 K): 0.0109
- solubility (mole fraction) (in 1,4-dioxane, 295.65 K): 0.0119
- solubility (mole fraction) (in 1,4-dioxane, 298.15 K): 0.0129
- solubility (mole fraction) (in 1,4-dioxane, 300.65 K): 0.014
- solubility (mole fraction) (in 1,4-dioxane, 303.15 K): 0.0151
- solubility (mole fraction) (in 1,4-dioxane, 305.65 K): 0.0161
- solubility (mole fraction) (in 1,4-dioxane, 308.15 K): 0.0173
- solubility (mole fraction) (in 1,4-dioxane, 310.65 K): 0.0186
- solubility (mole fraction) (in 1,4-dioxane, 313.15 K): 0.0198
- solubility (mole fraction) (in 1,4-dioxane, 315.65 K): 0.021
- solubility (mole fraction) (in 1,4-dioxane, 318.15 K): 0.0225
- solubility (mole fraction) (in 2-butanone, 283.15 K): 0.0145
- solubility (mole fraction) (in 2-butanone, 285.65 K): 0.016
- solubility (mole fraction) (in 2-butanone, 288.15 K): 0.0176
- solubility (mole fraction) (in 2-butanone, 290.65 K): 0.0194
- solubility (mole fraction) (in 2-butanone, 293.15 K): 0.0214
- solubility (mole fraction) (in 2-butanone, 295.65 K): 0.0235
- solubility (mole fraction) (in 2-butanone, 298.15 K): 0.0259
- solubility (mole fraction) (in 2-butanone, 300.65 K): 0.0282
- solubility (mole fraction) (in 2-butanone, 303.15 K): 0.0308
- solubility (mole fraction) (in 2-butanone, 305.65 K): 0.0335
- solubility (mole fraction) (in 2-butanone, 308.15 K): 0.0368
- solubility (mole fraction) (in 2-butanone, 310.65 K): 0.04
- solubility (mole fraction) (in 2-butanone, 313.15 K): 0.0434
- solubility (mole fraction) (in 2-butanone, 315.65 K): 0.0474
- solubility (mole fraction) (in 2-butanone, 318.15 K): 0.0512
- solubility (mole fraction) (in NMP, 283.15 K): 0.157
- solubility (mole fraction) (in NMP, 285.65 K): 0.162
- solubility (mole fraction) (in NMP, 288.15 K): 0.168
- solubility (mole fraction) (in NMP, 290.65 K): 0.174
- solubility (mole fraction) (in NMP, 293.15 K): 0.181
- solubility (mole fraction) (in NMP, 295.65 K): 0.188
- solubility (mole fraction) (in NMP, 298.15 K): 0.195
- solubility (mole fraction) (in NMP, 300.65 K): 0.202
- solubility (mole fraction) (in NMP, 303.15 K): 0.209
- solubility (mole fraction) (in NMP, 305.65 K): 0.217
- solubility (mole fraction) (in NMP, 308.15 K): 0.224
- solubility (mole fraction) (in NMP, 310.65 K): 0.233
- solubility (mole fraction) (in NMP, 313.15 K): 0.242
- solubility (mole fraction) (in NMP, 315.65 K): 0.252
- solubility (mole fraction) (in NMP, 318.15 K): 0.261
- solubility (mole fraction) (in acetone, 283.15 K): 0.0181
- solubility (mole fraction) (in acetone, 285.65 K): 0.0202
- solubility (mole fraction) (in acetone, 288.15 K): 0.0222
- solubility (mole fraction) (in acetone, 290.65 K): 0.0248
- solubility (mole fraction) (in acetone, 293.15 K): 0.027
- solubility (mole fraction) (in acetone, 295.65 K): 0.0299
- solubility (mole fraction) (in acetone, 298.15 K): 0.0326
- solubility (mole fraction) (in acetone, 300.65 K): 0.0358
- solubility (mole fraction) (in acetone, 303.15 K): 0.0391
- solubility (mole fraction) (in acetone, 305.65 K): 0.0426
- solubility (mole fraction) (in acetone, 308.15 K): 0.0465
- solubility (mole fraction) (in acetone, 310.65 K): 0.0508
- solubility (mole fraction) (in acetone, 313.15 K): 0.0555
- solubility (mole fraction) (in acetone, 315.65 K): 0.06
- solubility (mole fraction) (in acetone, 318.15 K): 0.0656
- solubility (mole fraction) (in chloroform, 283.15 K): 0.0132
- solubility (mole fraction) (in chloroform, 285.65 K): 0.0142
- solubility (mole fraction) (in chloroform, 288.15 K): 0.0156
- solubility (mole fraction) (in chloroform, 290.65 K): 0.017
- solubility (mole fraction) (in chloroform, 293.15 K): 0.0185
- solubility (mole fraction) (in chloroform, 295.65 K): 0.0201
- solubility (mole fraction) (in chloroform, 298.15 K): 0.0219
- solubility (mole fraction) (in chloroform, 300.65 K): 0.0236
- solubility (mole fraction) (in chloroform, 303.15 K): 0.0255
- solubility (mole fraction) (in chloroform, 305.65 K): 0.0276
- solubility (mole fraction) (in chloroform, 308.15 K): 0.0298
- solubility (mole fraction) (in chloroform, 310.65 K): 0.0322
- solubility (mole fraction) (in chloroform, 313.15 K): 0.0345
- solubility (mole fraction) (in chloroform, 315.65 K): 0.0372
- solubility (mole fraction) (in chloroform, 318.15 K): 0.0399
- solubility (mole fraction) (in ethanol, 283.15 K): 0.00218
- solubility (mole fraction) (in ethanol, 285.65 K): 0.00235
- solubility (mole fraction) (in ethanol, 288.15 K): 0.00259
- solubility (mole fraction) (in ethanol, 290.65 K): 0.00283
- solubility (mole fraction) (in ethanol, 293.15 K): 0.00313
- solubility (mole fraction) (in ethanol, 295.65 K): 0.00347
- solubility (mole fraction) (in ethanol, 298.15 K): 0.00381
- solubility (mole fraction) (in ethanol, 300.65 K): 0.00417
- solubility (mole fraction) (in ethanol, 303.15 K): 0.00456
- solubility (mole fraction) (in ethanol, 305.65 K): 0.00497
- solubility (mole fraction) (in ethanol, 308.15 K): 0.00539
- solubility (mole fraction) (in ethanol, 310.65 K): 0.00587
- solubility (mole fraction) (in ethanol, 313.15 K): 0.00643
- solubility (mole fraction) (in ethanol, 315.65 K): 0.00705
- solubility (mole fraction) (in ethanol, 318.15 K): 0.00784
- solubility (mole fraction) (in ethyl acetate, 283.15 K): 0.00846
- solubility (mole fraction) (in ethyl acetate, 285.65 K): 0.00911
- solubility (mole fraction) (in ethyl acetate, 288.15 K): 0.00983
- solubility (mole fraction) (in ethyl acetate, 290.65 K): 0.0108
- solubility (mole fraction) (in ethyl acetate, 293.15 K): 0.0118
- solubility (mole fraction) (in ethyl acetate, 295.65 K): 0.0128
- solubility (mole fraction) (in ethyl acetate, 298.15 K): 0.0139
- solubility (mole fraction) (in ethyl acetate, 300.65 K): 0.015
- solubility (mole fraction) (in ethyl acetate, 303.15 K): 0.0162
- solubility (mole fraction) (in ethyl acetate, 305.65 K): 0.0177
- solubility (mole fraction) (in ethyl acetate, 308.15 K): 0.0191
- solubility (mole fraction) (in ethyl acetate, 310.65 K): 0.0204
- solubility (mole fraction) (in ethyl acetate, 313.15 K): 0.0218
- solubility (mole fraction) (in ethyl acetate, 315.65 K): 0.0235
- solubility (mole fraction) (in ethyl acetate, 318.15 K): 0.0253
- solubility (mole fraction) (in isopropanol, 283.15 K): 0.00108
- solubility (mole fraction) (in isopropanol, 285.65 K): 0.00125
- solubility (mole fraction) (in isopropanol, 288.15 K): 0.00142
- solubility (mole fraction) (in isopropanol, 290.65 K): 0.00158
- solubility (mole fraction) (in isopropanol, 293.15 K): 0.00176
- solubility (mole fraction) (in isopropanol, 295.65 K): 0.00195
- solubility (mole fraction) (in isopropanol, 298.15 K): 0.00219
- solubility (mole fraction) (in isopropanol, 300.65 K): 0.00247
- solubility (mole fraction) (in isopropanol, 303.15 K): 0.00278
- solubility (mole fraction) (in isopropanol, 305.65 K): 0.00313
- solubility (mole fraction) (in isopropanol, 308.15 K): 0.00352
- solubility (mole fraction) (in isopropanol, 310.65 K): 0.00408
- solubility (mole fraction) (in isopropanol, 313.15 K): 0.00468
- solubility (mole fraction) (in isopropanol, 315.65 K): 0.00533
- solubility (mole fraction) (in isopropanol, 318.15 K): 0.00593
- solubility (mole fraction) (in methanol, 283.15 K): 0.0028
- solubility (mole fraction) (in methanol, 285.65 K): 0.00316
- solubility (mole fraction) (in methanol, 288.15 K): 0.00349
- solubility (mole fraction) (in methanol, 290.65 K): 0.00385
- solubility (mole fraction) (in methanol, 293.15 K): 0.0042
- solubility (mole fraction) (in methanol, 295.65 K): 0.0046
- solubility (mole fraction) (in methanol, 298.15 K): 0.00506
- solubility (mole fraction) (in methanol, 300.65 K): 0.00554
- solubility (mole fraction) (in methanol, 303.15 K): 0.00603
- solubility (mole fraction) (in methanol, 305.65 K): 0.00651
- solubility (mole fraction) (in methanol, 308.15 K): 0.00699
- solubility (mole fraction) (in methanol, 310.65 K): 0.00756
- solubility (mole fraction) (in methanol, 313.15 K): 0.00811
- solubility (mole fraction) (in methanol, 315.65 K): 0.0087
- solubility (mole fraction) (in methanol, 318.15 K): 0.00936
- solubility (mole fraction) (in n-propanol, 283.15 K): 0.00152
- solubility (mole fraction) (in n-propanol, 285.65 K): 0.00168
- solubility (mole fraction) (in n-propanol, 288.15 K): 0.00187
- solubility (mole fraction) (in n-propanol, 290.65 K): 0.00208
- solubility (mole fraction) (in n-propanol, 293.15 K): 0.00232
- solubility (mole fraction) (in n-propanol, 295.65 K): 0.00258
- solubility (mole fraction) (in n-propanol, 298.15 K): 0.00282
- solubility (mole fraction) (in n-propanol, 300.65 K): 0.00308
- solubility (mole fraction) (in n-propanol, 303.15 K): 0.00342
- solubility (mole fraction) (in n-propanol, 305.65 K): 0.0038
- solubility (mole fraction) (in n-propanol, 308.15 K): 0.00418
- solubility (mole fraction) (in n-propanol, 310.65 K): 0.00468
- solubility (mole fraction) (in n-propanol, 313.15 K): 0.00522
- solubility (mole fraction) (in n-propanol, 315.65 K): 0.00592
- solubility (mole fraction) (in n-propanol, 318.15 K): 0.0066
- solubility (mole fraction) (in toluene, 283.15 K): 0.00194
- solubility (mole fraction) (in toluene, 285.65 K): 0.00208
- solubility (mole fraction) (in toluene, 288.15 K): 0.00228
- solubility (mole fraction) (in toluene, 290.65 K): 0.00248
- solubility (mole fraction) (in toluene, 293.15 K): 0.00272
- solubility (mole fraction) (in toluene, 295.65 K): 0.00298
- solubility (mole fraction) (in toluene, 298.15 K): 0.00325
- solubility (mole fraction) (in toluene, 300.65 K): 0.00358
- solubility (mole fraction) (in toluene, 303.15 K): 0.0039
- solubility (mole fraction) (in toluene, 305.65 K): 0.00428
- solubility (mole fraction) (in toluene, 308.15 K): 0.00468
- solubility (mole fraction) (in toluene, 310.65 K): 0.00518
- solubility (mole fraction) (in toluene, 313.15 K): 0.00568
- solubility (mole fraction) (in toluene, 315.65 K): 0.00622
- solubility (mole fraction) (in toluene, 318.15 K): 0.00683
